Literature values in patent publication US20090137457A1, “Pyrimidinedione derivatives” (CoNCERT Pharmaceuticals, Inc., priority 2007, published 2009).

Details: Phase I and II clinical trials; Christopher R et al., ADA 2007 (Abs 0495-P)

In the case of `Cn1c(=O)cc(N2CCC[C@@H](N)C2)n(Cc2ccccc2C#N)c1=O` [Alogliptin], the “tolerability in clinical trials” value is given as “generally well tolerated”.
